Converted amounts (≈) assume the structure as drawn.
What was measured:
[1] = Genotoxicity in human TK6 cells assessed as micronuclei formation by micronucleus test; assay type: toxicity, cell-based
[2] = biological target: Phosphatidylinositol 4,5-bisphosphate 3-kinase catalytic subunit beta isoform (Homo sapiens, UniProt P42338); assay: Inhibition of PI3Kbeta (unknown origin)
[3] = biological target: Phosphatidylinositol 4,5-bisphosphate 3-kinase catalytic subunit gamma isoform (Homo sapiens, UniProt P48736); assay: Inhibition of PI3Kgamma (unknown origin)
Chain of Phosphatidylinositol 4,5-bisphosphate 3-kinase catalytic subunit gamma isoform (P48736 whole entry, canonical isoform): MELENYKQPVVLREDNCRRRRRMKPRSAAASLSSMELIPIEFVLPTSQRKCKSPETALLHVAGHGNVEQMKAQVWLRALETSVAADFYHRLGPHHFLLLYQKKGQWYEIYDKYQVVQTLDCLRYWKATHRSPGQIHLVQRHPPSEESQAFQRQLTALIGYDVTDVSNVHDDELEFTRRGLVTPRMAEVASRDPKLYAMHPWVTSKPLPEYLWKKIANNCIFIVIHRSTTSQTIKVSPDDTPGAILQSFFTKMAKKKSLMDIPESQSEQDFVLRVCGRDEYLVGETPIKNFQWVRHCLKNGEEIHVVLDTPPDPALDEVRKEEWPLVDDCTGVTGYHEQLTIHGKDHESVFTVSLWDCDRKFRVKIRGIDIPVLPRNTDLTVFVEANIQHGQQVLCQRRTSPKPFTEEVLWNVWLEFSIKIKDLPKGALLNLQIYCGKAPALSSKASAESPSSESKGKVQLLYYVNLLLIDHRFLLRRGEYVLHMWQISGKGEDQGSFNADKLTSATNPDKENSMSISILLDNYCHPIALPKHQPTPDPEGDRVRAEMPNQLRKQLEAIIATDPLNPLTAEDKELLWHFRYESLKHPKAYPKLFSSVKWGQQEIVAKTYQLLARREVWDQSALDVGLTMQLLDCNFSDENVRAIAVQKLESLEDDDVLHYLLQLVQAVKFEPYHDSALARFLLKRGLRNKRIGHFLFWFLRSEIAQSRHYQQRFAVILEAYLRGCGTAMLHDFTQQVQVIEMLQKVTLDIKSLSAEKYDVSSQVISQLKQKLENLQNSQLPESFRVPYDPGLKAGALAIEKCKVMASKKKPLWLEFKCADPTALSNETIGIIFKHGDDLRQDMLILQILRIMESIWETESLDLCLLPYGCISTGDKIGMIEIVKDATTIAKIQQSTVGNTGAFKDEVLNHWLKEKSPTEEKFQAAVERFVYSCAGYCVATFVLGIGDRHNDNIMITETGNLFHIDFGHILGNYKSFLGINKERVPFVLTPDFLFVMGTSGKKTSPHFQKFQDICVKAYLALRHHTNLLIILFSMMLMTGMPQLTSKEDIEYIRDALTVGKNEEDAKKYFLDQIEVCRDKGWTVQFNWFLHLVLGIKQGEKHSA

[4] = biological target: T1, Phosphatidylinositol 4,5-bisphosphate 3-kinase catalytic subunit delta isoform (Homo sapiens, UniProt O00329); assay: Inhibition of PI3Kdelta (unknown origin)
T1 sequence (O00329 whole entry): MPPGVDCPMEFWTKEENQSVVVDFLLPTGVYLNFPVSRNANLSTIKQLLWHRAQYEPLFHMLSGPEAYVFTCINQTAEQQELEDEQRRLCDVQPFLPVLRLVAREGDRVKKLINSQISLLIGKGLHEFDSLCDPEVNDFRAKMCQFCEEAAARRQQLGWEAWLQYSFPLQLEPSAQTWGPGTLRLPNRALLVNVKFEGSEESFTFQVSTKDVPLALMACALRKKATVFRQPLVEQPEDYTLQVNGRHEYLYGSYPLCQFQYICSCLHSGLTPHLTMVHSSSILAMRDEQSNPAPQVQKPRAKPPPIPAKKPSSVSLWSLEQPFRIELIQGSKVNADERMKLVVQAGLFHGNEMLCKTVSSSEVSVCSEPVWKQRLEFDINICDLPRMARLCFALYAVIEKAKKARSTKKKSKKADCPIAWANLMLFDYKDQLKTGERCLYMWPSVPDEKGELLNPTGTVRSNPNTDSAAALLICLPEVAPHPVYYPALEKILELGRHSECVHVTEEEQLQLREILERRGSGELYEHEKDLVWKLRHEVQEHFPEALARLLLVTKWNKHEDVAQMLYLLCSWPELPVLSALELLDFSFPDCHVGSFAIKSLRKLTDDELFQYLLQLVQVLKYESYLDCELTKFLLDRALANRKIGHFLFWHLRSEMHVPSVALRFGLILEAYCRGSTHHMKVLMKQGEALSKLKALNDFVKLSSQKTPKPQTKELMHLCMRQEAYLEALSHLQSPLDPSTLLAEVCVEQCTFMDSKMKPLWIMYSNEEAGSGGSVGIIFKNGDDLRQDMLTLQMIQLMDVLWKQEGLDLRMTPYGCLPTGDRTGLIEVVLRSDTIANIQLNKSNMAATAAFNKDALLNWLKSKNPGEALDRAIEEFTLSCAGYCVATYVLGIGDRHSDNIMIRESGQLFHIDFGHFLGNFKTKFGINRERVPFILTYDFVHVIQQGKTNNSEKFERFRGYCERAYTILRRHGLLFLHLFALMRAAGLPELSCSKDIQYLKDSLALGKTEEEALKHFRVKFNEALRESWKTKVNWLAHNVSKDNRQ

Cytochrome P450 3A4 = Cytochrome P450 3A4 (Homo sapiens, UniProt P08684); assay: Inhibition of CYP3A4 (unknown origin) assessed as Kobs; assay type: ADME
Chain of Cytochrome P450 3A4 (P08684 whole entry): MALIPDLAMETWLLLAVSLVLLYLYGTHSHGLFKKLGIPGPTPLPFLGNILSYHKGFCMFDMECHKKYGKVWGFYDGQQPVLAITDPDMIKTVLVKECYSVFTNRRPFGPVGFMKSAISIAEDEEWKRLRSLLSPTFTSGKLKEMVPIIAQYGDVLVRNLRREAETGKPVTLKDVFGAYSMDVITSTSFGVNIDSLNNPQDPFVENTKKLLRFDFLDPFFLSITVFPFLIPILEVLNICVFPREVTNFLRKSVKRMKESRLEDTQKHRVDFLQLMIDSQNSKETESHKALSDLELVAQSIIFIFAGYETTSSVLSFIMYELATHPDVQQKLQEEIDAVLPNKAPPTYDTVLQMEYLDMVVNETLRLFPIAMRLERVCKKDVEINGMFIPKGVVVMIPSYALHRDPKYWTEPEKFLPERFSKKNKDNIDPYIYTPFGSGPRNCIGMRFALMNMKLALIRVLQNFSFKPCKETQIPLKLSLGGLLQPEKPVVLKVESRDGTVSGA

[5] = Metabolic stability in rat liver microsomes assessed as intrinsic clearance at 1 uM incubated for 30 mins in presence of NADPH by LC-MS/MS analysis; assay type: ADME, Microsome; conditions: read-out: CLH
[6] = Apparent permeability across apical to basolateral side in MDCK-MDR1 cells; assay type: ADME, cell-based, Canis lupus familiaris; conditions: dog
[7] = Apparent permeability across basolateral to apical side in MDCK-MDR1 cells; assay type: ADME, cell-based, Canis lupus familiaris; conditions: dog
[8] = biological target: 3',5'-cyclic-AMP phosphodiesterase 4D (Homo sapiens, UniProt Q08499); assay: Inhibition of PDE4D (unknown origin)
Chain of 3',5'-cyclic-AMP phosphodiesterase 4D (Q08499 whole entry): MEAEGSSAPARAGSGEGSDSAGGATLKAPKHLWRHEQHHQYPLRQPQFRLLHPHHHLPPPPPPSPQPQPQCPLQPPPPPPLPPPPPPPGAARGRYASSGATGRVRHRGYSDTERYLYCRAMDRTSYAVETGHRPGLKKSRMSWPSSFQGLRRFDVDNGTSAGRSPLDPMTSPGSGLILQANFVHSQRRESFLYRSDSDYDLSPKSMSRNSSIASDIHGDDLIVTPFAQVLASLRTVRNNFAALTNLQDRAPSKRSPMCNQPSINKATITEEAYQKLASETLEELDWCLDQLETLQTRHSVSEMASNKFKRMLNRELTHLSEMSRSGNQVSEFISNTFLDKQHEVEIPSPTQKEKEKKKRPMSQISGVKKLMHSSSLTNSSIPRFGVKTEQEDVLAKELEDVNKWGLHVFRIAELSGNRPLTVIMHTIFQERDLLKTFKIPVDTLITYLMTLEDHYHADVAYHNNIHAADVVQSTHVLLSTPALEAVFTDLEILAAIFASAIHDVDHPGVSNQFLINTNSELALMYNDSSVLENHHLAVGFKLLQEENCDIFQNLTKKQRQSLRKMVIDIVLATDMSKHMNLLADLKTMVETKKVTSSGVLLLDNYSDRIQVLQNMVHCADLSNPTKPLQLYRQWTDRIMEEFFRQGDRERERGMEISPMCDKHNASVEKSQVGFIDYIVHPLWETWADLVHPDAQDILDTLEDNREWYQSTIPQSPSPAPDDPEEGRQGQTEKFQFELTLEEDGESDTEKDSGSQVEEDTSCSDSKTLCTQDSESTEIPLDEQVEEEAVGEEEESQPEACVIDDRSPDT

[9] = Solubility of compound at pH 6.8; assay type: physicochemical; conditions: buffer
[10] = AUC(0 to t) in C57BL/6 mouse at 1 mg/kg, iv measured upto 24 hrs by HPLC-MS analysis; assay type: ADME, organism-based; set-up: time < 24 hrs, dose 1 mg/kg, route iv; conditions: in vivo
[11] = AUC(0 to t) in C57BL/6 mouse at 3 mg/kg, ip measured upto 24 hrs by HPLC-MS analysis; assay type: ADME, organism-based; set-up: time < 24 hrs, dose 3 mg/kg, route ip; conditions: in vivo
[12] = AUC(0 to t) in Sprague-Dawley rat at 1 mg/kg, iv measured upto 24 hrs by HPLC-MS analysis; assay type: ADME, organism-based; set-up: dose 1 mg/kg, time < 24 hrs, route iv; conditions: in vivo
[13] = AUC(0 to t) in Sprague-Dawley rat at 3 mg/kg, po measured upto 24 hrs by HPLC-MS analysis; assay type: ADME, organism-based; set-up: dose 3 mg/kg, time < 24 hrs, route po; conditions: in vivo
[14] = Cmax in po dosed C57BL/6 mouse measured upto 24 hrs by HPLC-MS analysis; assay type: ADME, organism-based; set-up: time < 24 hrs, route po; conditions: in vivo
[15] = Tmax in C57BL/6 mouse at 1 mg/kg, iv and 3 mg/kg, ip measured upto 24 hrs by HPLC-MS analysis; assay type: ADME, organism-based; conditions: in vivo
[16] = Bioavailability in Sprague-Dawley rat at 3 mg/kg, po and 1 mg/kg, iv measured upto 24 hrs by HPLC-MS analysis; assay type: ADME, organism-based; conditions: in vivo
[17] = Half life in Sprague-Dawley rat at 3 mg/kg, po and 1 mg/kg, iv measured upto 24 hrs by HPLC-MS analysis; assay type: ADME, organism-based; conditions: in vivo
[18] = Ratio of drug concentration in brain to plasma in Sprague-Dawley rat at 3 mg/kg, po measured at 1 hr by HPLC-MS analysis; assay type: ADME, organism-based; conditions: brain and plasma, read-out: BPR
[19] = Plasma protein binding in C57BL/6 mouse plasma at 5 uM measured for 4 hrs by equilibrium dialysis method based LC/MS/MS analysis; assay type: ADME, cell-free; conditions: read-out: PPB (converted)
[20] = biological target: Serine/threonine-protein kinase mTOR (Mus musculus) (UniProt Q9JLN9); assay: Inhibition of mTOR in Tsc1 knockout mouse neurons assessed as reduction in phosphorylated S6 level incubated for 4 hrs by Hoechst staining based immunofluorescence analysis; assay type: cell-based; conditions: Neuron, dose 5.0 µM
[21] = Drug concentration in C57BL/6 mouse brain at 10 mg/kg, po measured after 1 hr; assay type: ADME, organism-based; conditions: read-out: Ct
[22] = Drug concentration in C57BL/6 mouse brain at 30 mg/kg, po measured after 1 hr; assay type: ADME, organism-based; conditions: read-out: Ct
[23] = Drug concentration in C57BL/6 mouse plasma at 30 mg/kg, po measured after 1 hr; assay type: ADME, organism-based
[24] = Ratio of drug concentration in brain to plasma in C57BL/6 mouse at 30 mg/kg, po measured at 1 hr; assay type: ADME, organism-based; conditions: brain and plasma, read-out: BPR
[25] = Drug concentration in C57BL/6 mouse brain at 10 mg/kg, po measured after 3 hrs; assay type: ADME, organism-based; conditions: read-out: Ct
[26] = Drug concentration in C57BL/6 mouse plasma at 10 mg/kg, po measured after 3 hrs; assay type: ADME, organism-based
[27] = Ratio of drug concentration in brain to plasma in C57BL/6 mouse at 10 mg/kg, po measured at 3 hrs; assay type: ADME, organism-based; conditions: read-out: BPR
[28] = Ratio of drug concentration in brain to plasma in C57BL/6 mouse at 30 mg/kg, po measured at 3 hrs; assay type: ADME, organism-based; conditions: read-out: BPR
[29] = Drug concentration in C57BL/6 mouse brain at 30 mg/kg, po measured after 24 hrs; assay type: ADME, organism-based; conditions: read-out: Ct
[30] = Drug concentration in C57BL/6 mouse plasma at 10 mg/kg, po measured after 24 hrs; assay type: ADME, organism-based
[31] = Drug concentration in C57BL/6 mouse plasma at 30 mg/kg, po measured after 24 hrs; assay type: ADME, organism-based

Chain of Phosphatidylinositol 4,5-bisphosphate 3-kinase catalytic subunit beta isoform (P42338 whole entry, canonical isoform): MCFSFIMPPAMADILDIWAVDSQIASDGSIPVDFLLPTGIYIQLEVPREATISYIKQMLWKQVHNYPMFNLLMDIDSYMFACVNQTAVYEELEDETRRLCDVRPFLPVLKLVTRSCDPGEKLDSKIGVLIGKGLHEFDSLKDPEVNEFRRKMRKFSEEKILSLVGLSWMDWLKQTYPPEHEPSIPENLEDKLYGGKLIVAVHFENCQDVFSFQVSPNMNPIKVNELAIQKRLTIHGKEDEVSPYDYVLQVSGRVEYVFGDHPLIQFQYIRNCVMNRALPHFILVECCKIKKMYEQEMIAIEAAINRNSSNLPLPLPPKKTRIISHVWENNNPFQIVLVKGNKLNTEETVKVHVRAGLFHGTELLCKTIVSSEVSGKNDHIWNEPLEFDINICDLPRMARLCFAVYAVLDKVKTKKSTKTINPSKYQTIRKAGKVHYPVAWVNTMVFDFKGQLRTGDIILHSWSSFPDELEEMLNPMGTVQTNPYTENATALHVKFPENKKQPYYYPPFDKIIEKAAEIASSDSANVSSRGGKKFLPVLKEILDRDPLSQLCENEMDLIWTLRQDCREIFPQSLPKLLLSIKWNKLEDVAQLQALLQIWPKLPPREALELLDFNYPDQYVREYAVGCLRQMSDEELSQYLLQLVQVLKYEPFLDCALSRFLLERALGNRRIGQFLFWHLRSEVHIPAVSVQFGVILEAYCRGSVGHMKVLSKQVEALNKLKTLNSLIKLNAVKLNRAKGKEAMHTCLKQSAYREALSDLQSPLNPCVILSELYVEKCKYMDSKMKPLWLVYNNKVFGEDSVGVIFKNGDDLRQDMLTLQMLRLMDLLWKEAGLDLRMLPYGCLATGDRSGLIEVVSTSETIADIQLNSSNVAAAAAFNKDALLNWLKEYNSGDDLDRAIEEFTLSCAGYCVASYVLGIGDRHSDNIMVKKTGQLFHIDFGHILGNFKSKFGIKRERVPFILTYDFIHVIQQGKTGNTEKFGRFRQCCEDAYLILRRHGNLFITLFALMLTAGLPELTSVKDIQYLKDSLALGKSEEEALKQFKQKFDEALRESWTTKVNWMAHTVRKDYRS

IC50 [2] | IC50 [3] | IC50 [4] | Kobs (Cytochrome P450 3A4) | microsomal CLint at 1 µM [5] | Papp A→B [6] | Papp B→A [7] | IC50 [8] | solubility [9] | AUC(0-t) at 24 h [11] | AUC(0-t) at 24 h [12] | AUC(0-t) at 24 h [13] | Cmax [14] | Tmax [15] | bioavailability [16] | half-life [17] | Kp at 1 h [18] | fraction unbound at 4 h, 5 µM [19] | inhibition [20] | Structure (SMILES) | Activity [1] | also measured
> 10 µM | > 10 µM | > 10 µM | 0.021 min⁻¹ | 21 µL/min/mg | 14 ×10⁻⁶ cm/s | 12 ×10⁻⁶ cm/s | 6.3 µM | 20 µg/mL (≈ 49.9 µM) | 11.7 µM·h | 2.39 µM·h | 6.45 µM·h | 1920 nM | 1.5 h | 107% | 3 h | 0.33 | 0.068 | Dose-Dependent Effect | C[C@@H]1COCCN1c1cc(N2CCOC[C@@H]2C)nc2[nH]c(-c3cscn3)nc12 | Non-Toxic | AUCt ([10]; mouse, 24 h): 10.377 µM·h; concentration at 1 h [21]: 4270 nM; concentration at 1 h [22]: 13100 nM; concentration at 1 h [23]: 10200 nM; Kp at 1 h [24]: 1.29; concentration at 3 h [25]: 3250 nM; concentration at 3 h [26]: 5520 nM; Kp at 3 h [27]: 0.59; Kp at 3 h [28]: 0.75; concentration at 24 h [29]: 4650 nM; concentration at 24 h [30]: 211 nM; concentration at 24 h [31]: 7020 nM
> 10 µM | > 10 µM | > 10 µM | 0.032 min⁻¹ | 27 µL/min/mg | 41.5 ×10⁻⁶ cm/s | 20.1 ×10⁻⁶ cm/s | 17 µM | 180 µg/mL (≈ 456 µM) | 6.66 µM·h | 8.09 µM·h | 29.6 µM·h | 1260 nM | 0.4 h | 122% | 2.6 h | 0.72 | 0.065 | Dose-Dependent Effect | C[C@@H]1COCCN1c1cc(N2CCOC[C@@H]2C)nc2[nH]c(-c3ccccn3)nc12 | Non-Toxic | AUC(0-t) at 24 h ([10]; C57BL/6, mouse): 2.22 µM·h; concentration at 1 h [21]: 1490 nM; concentration at 1 h [22]: 4050 nM; concentration at 1 h [23]: 3930 nM; Kp at 1 h [24]: 1.03; concentration at 3 h [25]: 1110 nM; concentration at 3 h [26]: 2160 nM; Kp at 3 h [27]: 0.51; Kp at 3 h [28]: 0.65; concentration at 24 h [29]: 790 nM; concentration at 24 h [30]: 4 nM; concentration at 24 h [31]: 1120 nM
